# Legend:
# [1] = biological target: Metabotropic glutamate receptor 7 (Rattus norvegicus) (UniProt P35400); assay: (§1) Positive allosteric modulation of rat mGlu7 receptor expressed in HEK293 cells co-expressing Gai5 assessed as potentiation of L-AP4-induced calcium mobilization preincubated for 140 secs and treated with EC20 L-AP4 for 125 secs and followed by subsequent addition of EC80 L-AP4 by Fluo-4-AM dye based fluorescence assay relative to maximal induction of L-AP4; assay type: functional, cell-based; conditions: filed as positive allosteric modulator, time 140.0 sec
# [2] = biological target: Metabotropic glutamate receptor 7 (Rattus norvegicus) (UniProt P35400); assay: Positive allosteric modulation of rat mGlu7 expressed in HEK293 cells co- expressing GIRK assessed as potentiation of L-AP4-induced thallium flux incubated for 140 sec by FluoZin2-AM dye based fluorescence analysis relative to maximal induction of L-AP4; assay type: cell-based; conditions: filed as positive allosteric modulator
# [3] = biological target: Metabotropic glutamate receptor 7 (Rattus norvegicus, UniProt P35400); assay: as §1, with “assay” for “assay relative to maximal induction of L-AP4”; assay type: functional, cell-based; conditions: read-out: EC50
# [4] = biological target: Sodium-dependent dopamine transporter (Homo sapiens, UniProt Q01959); assay: Displacement of […] from recombinant human Dopamine transporter after 120 mins by scintillation counting analysis; assay type: ADME
# [5] = Unbound plasma to brain permeability coefficient, Kp of the compound in rat; assay type: ADME, cell-free; conditions: read-out: K(p,uu,brain)
# [6] = biological target: Metabotropic glutamate receptor 3 (Homo sapiens, UniProt Q14832); assay: Negative allosteric modulation of mGlu3 receptor (unknown origin)
# [7] = biological target: Metabotropic glutamate receptor 1 (Homo sapiens, UniProt Q13255); assay: Negative allosteric modulation of mGlu1 receptor (unknown origin)
# [8] = biological target: Metabotropic glutamate receptor 5 (Homo sapiens, UniProt P41594); assay: Negative allosteric modulation of mGlu5 receptor (unknown origin)
# [9] = biological target: Metabotropic glutamate receptor 4 (Homo sapiens, UniProt Q14833); assay: Negative allosteric modulation of mGlu4 receptor (unknown origin)
# [10] = biological target: Metabotropic glutamate receptor 2 (Homo sapiens, UniProt Q14416); assay: Negative allosteric modulation of mGlu2 receptor (unknown origin)
# [11] = Plasma to brain permeability coefficient, Kp of the compound in rat; assay type: ADME, cell-free
# [12] = biological target: Metabotropic glutamate receptor 8 (Homo sapiens, UniProt O00222); assay: Negative allosteric modulation of mGlu8 receptor (unknown origin)
# Chain of Metabotropic glutamate receptor 7 (P35400 whole entry): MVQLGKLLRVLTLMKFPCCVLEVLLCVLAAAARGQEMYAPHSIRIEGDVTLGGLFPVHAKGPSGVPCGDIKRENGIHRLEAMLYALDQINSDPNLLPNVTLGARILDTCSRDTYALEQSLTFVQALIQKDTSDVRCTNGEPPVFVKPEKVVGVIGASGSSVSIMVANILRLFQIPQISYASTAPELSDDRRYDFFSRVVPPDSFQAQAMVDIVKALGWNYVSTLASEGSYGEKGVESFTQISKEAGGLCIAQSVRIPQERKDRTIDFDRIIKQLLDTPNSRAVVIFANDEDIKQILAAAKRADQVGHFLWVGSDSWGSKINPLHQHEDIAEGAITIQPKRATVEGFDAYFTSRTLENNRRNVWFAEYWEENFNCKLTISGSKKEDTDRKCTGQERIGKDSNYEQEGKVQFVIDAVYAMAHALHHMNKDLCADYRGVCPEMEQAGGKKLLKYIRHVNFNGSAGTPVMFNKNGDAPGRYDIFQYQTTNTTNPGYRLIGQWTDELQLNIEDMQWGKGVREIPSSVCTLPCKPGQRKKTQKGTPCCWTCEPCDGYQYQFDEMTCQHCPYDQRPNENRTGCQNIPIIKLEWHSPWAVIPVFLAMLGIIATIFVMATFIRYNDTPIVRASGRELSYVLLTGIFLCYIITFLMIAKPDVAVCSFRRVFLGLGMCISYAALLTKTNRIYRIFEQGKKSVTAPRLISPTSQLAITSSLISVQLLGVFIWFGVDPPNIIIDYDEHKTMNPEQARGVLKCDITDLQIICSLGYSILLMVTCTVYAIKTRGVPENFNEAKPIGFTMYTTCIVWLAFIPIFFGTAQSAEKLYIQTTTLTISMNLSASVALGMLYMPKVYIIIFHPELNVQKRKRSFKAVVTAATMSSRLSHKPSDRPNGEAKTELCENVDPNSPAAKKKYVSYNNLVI
# Chain of Metabotropic glutamate receptor 7 (Rattus norvegicus) (P35400 whole entry): as above
# Chain of Sodium-dependent dopamine transporter (Q01959 whole entry): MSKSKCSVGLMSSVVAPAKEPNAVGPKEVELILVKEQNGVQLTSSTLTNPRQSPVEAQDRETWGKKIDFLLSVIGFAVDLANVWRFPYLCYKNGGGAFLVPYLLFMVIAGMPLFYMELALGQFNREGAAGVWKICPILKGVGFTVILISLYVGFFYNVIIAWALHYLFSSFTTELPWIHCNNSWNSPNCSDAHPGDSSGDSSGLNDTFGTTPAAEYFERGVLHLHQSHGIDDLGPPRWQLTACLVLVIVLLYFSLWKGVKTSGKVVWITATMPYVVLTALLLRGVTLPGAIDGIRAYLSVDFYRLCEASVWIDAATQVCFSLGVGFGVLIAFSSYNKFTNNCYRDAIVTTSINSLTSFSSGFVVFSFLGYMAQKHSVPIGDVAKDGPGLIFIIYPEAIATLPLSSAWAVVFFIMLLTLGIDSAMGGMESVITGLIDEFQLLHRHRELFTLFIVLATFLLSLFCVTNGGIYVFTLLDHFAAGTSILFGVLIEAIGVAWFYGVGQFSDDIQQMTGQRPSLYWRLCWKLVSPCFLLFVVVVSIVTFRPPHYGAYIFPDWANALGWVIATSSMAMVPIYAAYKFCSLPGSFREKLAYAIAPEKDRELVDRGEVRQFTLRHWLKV
# Chain of Metabotropic glutamate receptor 1 (Q13255 whole entry): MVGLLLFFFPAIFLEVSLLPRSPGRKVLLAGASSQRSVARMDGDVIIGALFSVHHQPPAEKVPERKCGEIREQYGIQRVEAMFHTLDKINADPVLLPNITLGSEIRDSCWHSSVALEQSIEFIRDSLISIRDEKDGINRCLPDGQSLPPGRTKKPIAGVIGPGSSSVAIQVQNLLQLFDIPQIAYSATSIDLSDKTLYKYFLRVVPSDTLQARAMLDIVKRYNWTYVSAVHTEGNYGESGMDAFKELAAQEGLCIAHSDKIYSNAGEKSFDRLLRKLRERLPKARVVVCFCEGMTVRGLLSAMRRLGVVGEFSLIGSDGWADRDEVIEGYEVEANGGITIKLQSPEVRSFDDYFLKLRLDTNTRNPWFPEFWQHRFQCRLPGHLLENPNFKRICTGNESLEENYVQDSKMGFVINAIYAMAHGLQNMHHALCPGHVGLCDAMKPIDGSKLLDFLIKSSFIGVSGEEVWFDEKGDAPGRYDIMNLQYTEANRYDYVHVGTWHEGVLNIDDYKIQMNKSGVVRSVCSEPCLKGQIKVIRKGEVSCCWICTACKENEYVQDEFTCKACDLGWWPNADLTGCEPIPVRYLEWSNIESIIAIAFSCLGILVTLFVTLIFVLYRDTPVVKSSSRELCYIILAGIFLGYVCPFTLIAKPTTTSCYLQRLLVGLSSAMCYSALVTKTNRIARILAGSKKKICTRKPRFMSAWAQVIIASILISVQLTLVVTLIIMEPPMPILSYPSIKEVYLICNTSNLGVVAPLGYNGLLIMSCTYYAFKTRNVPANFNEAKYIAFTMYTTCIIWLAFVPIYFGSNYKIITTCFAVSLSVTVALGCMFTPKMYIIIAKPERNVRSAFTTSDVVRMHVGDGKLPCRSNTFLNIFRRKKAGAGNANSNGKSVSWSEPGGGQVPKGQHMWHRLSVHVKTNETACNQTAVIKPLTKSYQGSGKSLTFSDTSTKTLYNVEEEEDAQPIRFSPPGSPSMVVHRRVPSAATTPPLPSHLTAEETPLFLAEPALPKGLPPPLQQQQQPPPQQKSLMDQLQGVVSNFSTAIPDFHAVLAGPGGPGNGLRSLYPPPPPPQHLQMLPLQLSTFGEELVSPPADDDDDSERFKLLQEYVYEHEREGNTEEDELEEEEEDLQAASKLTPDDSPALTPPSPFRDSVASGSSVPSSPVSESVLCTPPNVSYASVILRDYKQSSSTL
# Chain of Metabotropic glutamate receptor 5 (P41594 whole entry): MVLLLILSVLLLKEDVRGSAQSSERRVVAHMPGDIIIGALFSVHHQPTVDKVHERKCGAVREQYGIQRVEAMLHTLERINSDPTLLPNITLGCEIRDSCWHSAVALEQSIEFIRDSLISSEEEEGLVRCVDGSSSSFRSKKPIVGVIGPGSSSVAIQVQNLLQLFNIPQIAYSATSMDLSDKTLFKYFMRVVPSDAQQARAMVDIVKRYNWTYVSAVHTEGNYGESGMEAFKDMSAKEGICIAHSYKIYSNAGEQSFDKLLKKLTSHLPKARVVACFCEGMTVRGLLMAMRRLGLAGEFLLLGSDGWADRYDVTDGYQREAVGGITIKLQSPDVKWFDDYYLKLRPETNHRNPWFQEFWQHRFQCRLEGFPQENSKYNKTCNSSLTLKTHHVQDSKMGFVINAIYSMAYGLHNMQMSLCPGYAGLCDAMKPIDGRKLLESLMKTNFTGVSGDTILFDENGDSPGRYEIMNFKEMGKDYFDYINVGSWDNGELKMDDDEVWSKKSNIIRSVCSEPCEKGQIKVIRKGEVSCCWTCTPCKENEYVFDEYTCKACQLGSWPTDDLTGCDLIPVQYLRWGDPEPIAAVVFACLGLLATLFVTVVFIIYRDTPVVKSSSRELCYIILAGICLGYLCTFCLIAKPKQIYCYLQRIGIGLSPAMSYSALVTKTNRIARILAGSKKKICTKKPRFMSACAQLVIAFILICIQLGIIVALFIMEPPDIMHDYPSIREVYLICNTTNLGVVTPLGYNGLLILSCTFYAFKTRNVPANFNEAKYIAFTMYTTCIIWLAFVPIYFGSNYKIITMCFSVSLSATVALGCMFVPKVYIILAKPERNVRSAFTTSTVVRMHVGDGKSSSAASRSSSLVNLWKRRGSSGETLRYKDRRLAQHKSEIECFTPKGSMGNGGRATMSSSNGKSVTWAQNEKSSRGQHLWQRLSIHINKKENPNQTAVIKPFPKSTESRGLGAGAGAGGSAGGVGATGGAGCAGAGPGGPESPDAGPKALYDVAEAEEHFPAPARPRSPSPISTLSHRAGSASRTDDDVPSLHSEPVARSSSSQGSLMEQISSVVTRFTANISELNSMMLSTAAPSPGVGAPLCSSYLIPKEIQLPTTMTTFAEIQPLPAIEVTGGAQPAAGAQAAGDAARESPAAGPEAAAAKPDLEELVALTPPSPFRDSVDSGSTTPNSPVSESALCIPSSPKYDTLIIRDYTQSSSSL
# Chain of Metabotropic glutamate receptor 2 (Q14416 whole entry): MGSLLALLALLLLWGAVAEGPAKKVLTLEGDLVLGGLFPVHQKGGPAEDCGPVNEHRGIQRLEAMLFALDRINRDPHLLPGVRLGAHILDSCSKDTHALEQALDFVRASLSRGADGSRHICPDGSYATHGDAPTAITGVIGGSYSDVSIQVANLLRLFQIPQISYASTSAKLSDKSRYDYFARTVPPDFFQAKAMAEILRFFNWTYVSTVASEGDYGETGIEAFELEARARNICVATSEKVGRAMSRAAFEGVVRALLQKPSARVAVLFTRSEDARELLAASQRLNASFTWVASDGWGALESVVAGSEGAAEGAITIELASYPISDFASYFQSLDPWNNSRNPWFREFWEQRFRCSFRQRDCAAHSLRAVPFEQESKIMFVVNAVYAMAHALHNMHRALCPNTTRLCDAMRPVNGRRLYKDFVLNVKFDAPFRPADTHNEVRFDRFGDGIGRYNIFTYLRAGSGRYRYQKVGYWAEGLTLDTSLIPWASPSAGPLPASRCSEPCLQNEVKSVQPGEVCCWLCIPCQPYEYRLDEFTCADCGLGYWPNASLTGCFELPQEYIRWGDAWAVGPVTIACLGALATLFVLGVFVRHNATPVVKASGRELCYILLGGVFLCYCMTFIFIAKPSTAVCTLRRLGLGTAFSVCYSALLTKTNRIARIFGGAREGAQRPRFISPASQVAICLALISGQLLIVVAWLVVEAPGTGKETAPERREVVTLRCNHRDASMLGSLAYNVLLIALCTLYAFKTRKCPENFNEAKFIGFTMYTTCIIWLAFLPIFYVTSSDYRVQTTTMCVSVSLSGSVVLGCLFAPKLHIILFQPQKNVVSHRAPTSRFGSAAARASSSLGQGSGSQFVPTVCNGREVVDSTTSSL
SMILES,Activity [1],EC50 [3],other results
N#Cc1cnc2c(OCC3CCOC3)cccc2c1N1CCN(c2ccccc2F)CC1 (racemic) [listing 1 of 2 here],88%,,
N#Cc1cnc2c(OC3CCOC3)cccc2c1N1CCN(c2ccccc2F)CC1 (racemic),74%,,Activity [2]: 62.2%
N#Cc1cnc2c(N3CCCCC3)cccc2c1N1CCN(c2ccccc2F)CC1,24%,> 10 µM,
CCOC(=O)c1cnc2c(OC)cccc2c1N1CCN(c2ccccc2F)CC1,,,Kp uu [5]: 0.96; IC50 [6]: > 30 µM; IC50 [7]: > 30 µM; IC50 [8]: > 30 µM; IC50 [9]: > 30 µM; IC50 [10]: > 30 µM; Kp [11]: 4.7; IC50 [12]: > 30 µM
N#Cc1cnc2c(OCC3CCOC3)cccc2c1N1CCN(c2ccccc2F)CC1 (stereo in doubt; (-)-20f),89%,,
N#Cc1cnc2c(O)cc(F)cc2c1N1CCN(c2ccccc2F)CC1,90%,> 10 µM,
"N#Cc1cnc2c(OCC3CCOC3)cccc2c1N1CCN(c2ccccc2F)CC1 (single isomer, unassigned; (+)) [listing 1 of 2 here]",77%,,
N#Cc1cnc2c(N3CCC(F)(F)CC3)cccc2c1N1CCN(c2ccccc2F)CC1,22%,> 10 µM,
CC1CN(c2cccc3c(N4CCN(c5ccccc5F)CC4)c(C#N)cnc23)CCO1 (stereo unspecified),84%,7.1 µM,

# More lines, main results first:
Activity [1],EC50 [3],SMILES,other results
,1.1 µM,"N#Cc1cnc2c(OC3CCOC3)cccc2c1N1CCN(c2ccccc2F)CC1 (single isomer, unassigned; (-))",
53%,1.8 µM,COc1c(F)ccc2c(N3CCN(c4ccccc4F)CC3)c(C#N)cnc12,IC50 [4]: 3 µM
71%,0.51 µM,N#Cc1cnc2c(OC3CCOC3)cc(F)cc2c1N1CCN(c2ccccc2F)CC1 (stereo unspecified),
81%,6.7 µM,N#Cc1cnc2c(-n3ccnc3)cccc2c1N1CCN(c2ccccc2F)CC1,
,1.3 µM,N#Cc1cnc2c(OCC3CCOC3)cccc2c1N1CCN(c2ccccc2F)CC1 (racemic) [listing 2 of 2 here],
,1.5 µM,[2H]C([2H])([2H])Oc1cccc2c(N3CCN(c4ccccc4F)CC3)c(C#N)cnc12,
98%,3.8 µM,N#Cc1cnc2c(OC(F)F)cc(F)cc2c1N1CCN(c2ccccc2F)CC1,
76%,0.65 µM,N#Cc1cnc2c(OCC3CCOC3)cc(F)cc2c1N1CCN(c2ccccc2F)CC1 (stereo unspecified),
,1.9 µM,"N#Cc1cnc2c(OCC3CCOC3)cccc2c1N1CCN(c2ccccc2F)CC1 (single isomer, unassigned; (+)) [listing 2 of 2 here]",
